# According to US10874643B2 (priority 2015, dated 2020):
# Structures can show the parent of a compound that is named as a salt. Where two headings read alike, the source gives them in different places.
# Key:
# scn1Lab mutants [1] = test: Locomotion tracking assay of seizure behavior (96-well format); conditions: for effect on locomotor seizure behavior: 1 mM; for effect on locomotor seizure behavior / inhibition of spontaneous seizure behavior, initial library screen / convulsive/seizure behavior with antihistamines: 5 dpf; for effect on locomotor seizure behavior / inhibition of spontaneous seizure behavior, initial library screen: 6-12 fish; for 5HT library first-pass locomotion screen: 250 μM, 6 fish per drug, positive hit = reduction in mean swim velocity ≥38%; for swim activity / seizure behavior, third evaluation: 100 μM, 10 fish per trial; for seizure-induced swim activity and mean velocity, re-test on separate clutch: 667, 67 and 6.7 μM; for inhibition of spontaneous seizure behavior, initial library screen: 667 μM; for convulsive/seizure behavior with antihistamines: shelf screen at 0.1-1 mM
# scn1Lab mutants [2] = format: in vivo, zebrafish; conditions: for forebrain electrographic seizure activity in the same mutants after the locomotion assay: 100 μM, mutant embedded in agar; for fish in which epileptiform activity became more frequent following exposure: 1 mM
# wild-type larvae = test: DMSO toxicity in wild-type larvae; conditions: dilutions between 0.01 and 100%; n=12 fish per concentration
# [3] = 1 mM bath applied, agar-embedded mutants 5-6 dpf, seven fish per drug, vs baseline
# [4] = 1 mM bath applied, 5-6 dpf, seven fish per drug, vs baseline
smiles,measurement,setting,value
CC(=O)Nc1nnc(S(N)(=O)=O)s1 [Acetazolamide],effect on locomotor seizure behavior,scn1Lab mutants [1],increased seizure behavior
"COc1ccccc1N1CCN(CCN2C(=O)CC3(CCCC3)CC2=O)CC1 [BMY 7378, 8-(2-[4-(2-methoxyphenyl)-1-piperazinyl]ethyl)-8-azaspiro[4.5]decane-7,9-dione]",5HT library first-pass locomotion screen,scn1Lab mutants [1],positive hits
"CN1CCC(c2c[nH]c3ccc(O)cc23)CC1 [BRL-54443, 3-(1-methylpiperidin-4-yl)-1H-indol-5-ol]",5HT library first-pass locomotion screen,scn1Lab mutants [1],positive hits
C#CCN(C)CCCOc1ccc(Cl)cc1Cl [Clorgiline],forebrain electrographic seizure activity in the same mutants after the locomotion assay,scn1Lab mutants [2],electrographic seizure events were still observed
same,"swim activity / seizure behavior, third evaluation",scn1Lab mutants [1],reduced swim activity
same,"seizure-induced swim activity and mean velocity, re-test on separate clutch",scn1Lab mutants [1],effective in reducing seizure-induced swim activity and mean velocity
C[S+](C)[O-] [DMSO],lethal DMSO concentration,wild-type larvae,> 25%
C[C@]12N[C@H](Cc3ccccc31)c1ccccc12 [MK-801],epileptic seizure events in sample EEG traces,"scn1Lab mutants [2]; zebrafish, in vivo",no suppression of epileptic events
NCC(O)CC(=O)O (centres unmarked) [aminohydroxybutyric acid],"inhibition of spontaneous seizure behavior, initial library screen",scn1Lab mutants [1],ineffective
CNCC[C@@H](Oc1ccccc1C)c1ccccc1 [atomoxetine],5HT library first-pass locomotion screen,scn1Lab mutants [1],positive hits
O=C(CCCl)NCc1ccccc1 [beclamide],"inhibition of spontaneous seizure behavior, initial library screen",scn1Lab mutants [1],ineffective
O=C1CC2(CCCC2)CC(=O)N1CCCCN1CCN(c2ncccn2)CC1 [buspirone],5HT library first-pass locomotion screen,scn1Lab mutants [1],positive hits
NC(=O)N1c2ccccc2C=Cc2ccccc21 [carbamazepine],Epileptiform event frequency (burst frequency; interictal- and ictal-like discharges),scn1Lab mutants [2]; [3],increased burst frequency
same,fish in which epileptiform activity became more frequent following exposure,scn1Lab mutants [2]; seven fish per drug,2 of 7
CN1C(=O)CN=C(c2ccccc2)c2cc(Cl)ccc21 [diazepam],Epileptiform event frequency (burst frequency; interictal- and ictal-like discharges),"scn1Lab mutants [2]; zebrafish, in vivo",reduced
same,fractional time spent seizing,"scn1Lab mutants [2]; zebrafish, in vivo",reduced
same,effect on locomotor seizure behavior,scn1Lab mutants [1],effectively inhibited seizure behavior
CCC1(C)CC(=O)NC1=O (centres unmarked) [ethosuximide],fish in which epileptiform activity became more frequent following exposure,scn1Lab mutants [2]; seven fish per drug,4 of 7
same,effect on locomotor seizure behavior,scn1Lab mutants [1],increased seizure behavior
CC(=O)[C@H]1CC[C@H]2[C@@H]3CC[C@H]4C[C@](C)(O)CC[C@]4(C)[C@H]3CC[C@]12C [ganaxolone],effect on locomotor seizure behavior,scn1Lab mutants [1],effective
CC(C)CCCC(C)NC(C)C (centres unmarked) [iproheptine],convulsive/seizure behavior with antihistamines,scn1Lab mutants [1],failed to suppress convulsive behavior
Nc1nnc(-c2cccc(Cl)c2Cl)c(N)n1 [lamotrigine],effect on locomotor seizure behavior,scn1Lab mutants [1],had no effect
CC[C@@H](C(N)=O)N1CCCC1=O [levetiracetam],effect on locomotor seizure behavior,scn1Lab mutants [1],had no effect
C[C@H]1CNCCc2ccc(Cl)cc21 [lorcaserin],5HT library first-pass locomotion screen,scn1Lab mutants [1],positive hits
CN1CCc2c(c3ccccc3n2Cc2ccccc2)C1.CN1CCc2c(c3ccccc3n2Cc2ccccc2)C1.O=S(=O)(O)c1cccc2c(S(=O)(=O)O)cccc12 [mebhydrolin napthalenesulfonate],convulsive/seizure behavior with antihistamines,scn1Lab mutants [1],failed to suppress convulsive behavior
CNS(=O)(=O)CCc1ccc2[nH]cc(C3CCN(C)CC3)c2c1 [naratriptap],5HT library first-pass locomotion screen,scn1Lab mutants [1],positive hits
CN1CCC(=C2c3ccccc3Sc3ccccc32)CC1 [pimethixene maleate],convulsive/seizure behavior with antihistamines,scn1Lab mutants [1],failed to suppress convulsive behavior
[Br-].[K+] [potassium bromide],fractional time spent seizing,scn1Lab mutants [2]; [4],reduced
same,Epileptiform event frequency (burst frequency; interictal- and ictal-like discharges),scn1Lab mutants [2]; [3],reduced
same,effect on locomotor seizure behavior,scn1Lab mutants [1],effectively inhibited seizure behavior
CN(C)CCc1c[nH]c2ccc(Cn3cncn3)cc12 [rizatriptan],5HT library first-pass locomotion screen,scn1Lab mutants [1],positive hits
CC(C)(C)C(O)/C=C/c1ccc2c(c1)OCO2 (centres unmarked) [stiripentol],fractional time spent seizing,scn1Lab mutants [2]; [4],reduced
same,Epileptiform event frequency (burst frequency; interictal- and ictal-like discharges),scn1Lab mutants [2]; [3],reduced
same,effect on locomotor seizure behavior,scn1Lab mutants [1],effectively inhibited seizure behavior
CNS(=O)(=O)Cc1ccc2[nH]cc(CCN(C)C)c2c1 [sumatriptan],5HT library first-pass locomotion screen,scn1Lab mutants [1],positive hits
CCNC1(c2cccs2)CCCCC1=O (centres unmarked) [tiletamine],"inhibition of spontaneous seizure behavior, initial library screen",scn1Lab mutants [1],ineffective
Cc1ccc(C(=O)C(C)CN2CCCCC2)cc1 (centres unmarked) [tolperisone],forebrain electrographic seizure activity in the same mutants after the locomotion assay,scn1Lab mutants [2],electrographic seizure events were still observed
same,"swim activity / seizure behavior, third evaluation",scn1Lab mutants [1],reduced swim activity
same,"seizure-induced swim activity and mean velocity, re-test on separate clutch",scn1Lab mutants [1],effective in reducing seizure-induced swim activity and mean velocity
O=c1n(CCCN2CCN(c3cccc(Cl)c3)CC2)nc2ccccn12 [trazodone],epileptic seizure events in sample EEG traces,scn1Lab mutants [2]; FIG. 12B,suppression of epileptic seizure events
same,EEG activity,"scn1Lab mutants [2]; concentrations between 250 and 500 μM, n=15",effectively suppressed EEG activity
same,5HT library first-pass locomotion screen,scn1Lab mutants [1],positive hits
same,toxicity in the locomotion assay,scn1Lab mutants [1]; 750 μM,toxic
same,"inhibition of spontaneous seizure behavior, concentration-response re-test","scn1Lab mutants [1]; concentrations between 100 and 750 μM, 30 or 90 min exposure, threshold ≥40%",robust inhibition of spontaneous seizure behavior
COc1ccccc1N1CCN(CCCNc2cc(=O)n(C)c(=O)n2C)CC1 [urapidil],5HT library first-pass locomotion screen,scn1Lab mutants [1],positive hits
COc1ccc(C(CN(C)C)C2(O)CCCCC2)cc1 (centres unmarked) [venlafaxine],5HT library first-pass locomotion screen,scn1Lab mutants [1],positive hits
C=CC(N)CCC(=O)O (centres unmarked) [vigabatrin],Epileptiform event frequency (burst frequency; interictal- and ictal-like discharges),scn1Lab mutants [2]; [3],increased burst frequency
same,fish in which epileptiform activity became more frequent following exposure,scn1Lab mutants [2]; seven fish per drug,6 of 7
O=C1Cc2cc(CCN3CCN(c4nsc5ccccc45)CC3)c(Cl)cc2N1 [ziprasidone],5HT library first-pass locomotion screen,scn1Lab mutants [1],positive hits
CN(C)CCc1c[nH]c2ccc(C[C@H]3COC(=O)N3)cc12 [zolmitriptan],5HT library first-pass locomotion screen,scn1Lab mutants [1],positive hits
